# Measurements reported in PubChem BioAssay (NCI).
#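 GI50: concentration for 50% inhibition of growth. The concentration for full growth arrest is given as TGI.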
# Assays:
# Assay in all cases: NCI tumour cell line growth inhibition, 384-well format
# 786-0 renal = system: 786-0 renal
# A498 renal = system: A498 renal
# A549 NSCLC = system: A549 NSCLC
# ACHN renal = system: ACHN renal
# BT-549 breast = system: BT-549 breast
# CAKI-1 renal = system: CAKI-1 renal
# CCRF-CEM leukemia = system: CCRF-CEM leukemia
# COLO 205 colon = system: COLO 205 colon
# DU-145 prostate = system: DU-145 prostate
# EKVX NSCLC = system: EKVX NSCLC
# HCC-2998 colon = system: HCC-2998 colon
# HCT-15 colon = system: HCT-15 colon
# HL-60(TB) leukemia = system: HL-60(TB) leukemia
# HOP-62 NSCLC = system: HOP-62 NSCLC
# HOP-92 NSCLC = system: HOP-92 NSCLC
# HS 578T breast = system: HS 578T breast
# HT29 colon = system: HT29 colon
# IGROV1 ovarian = system: IGROV1 ovarian
# K-562 leukemia = system: K-562 leukemia
# KM12 colon = system: KM12 colon
# LOX IMVI melanoma = system: LOX IMVI melanoma
# M14 melanoma = system: M14 melanoma
# MALME-3M melanoma = system: MALME-3M melanoma
# MCF7 breast = system: MCF7 breast
# MDA-MB-231 breast = system: MDA-MB-231 breast
# MDA-MB-435 melanoma = system: MDA-MB-435 melanoma
# MDA-MB-468 breast = system: MDA-MB-468 breast
# MOLT-4 leukemia = system: MOLT-4 leukemia
# NCI-H226 lung = system: NCI-H226 lung
# NCI-H23 lung = system: NCI-H23 lung
# NCI-H322M lung = system: NCI-H322M lung
# NCI-H460 NSCLC = system: NCI-H460 NSCLC
# NCI-H522 lung = system: NCI-H522 lung
# NCI/ADR-RES ovarian = system: NCI/ADR-RES ovarian
# OVCAR-3 ovarian = system: OVCAR-3 ovarian
# OVCAR-4 ovarian = system: OVCAR-4 ovarian
# OVCAR-5 ovarian = system: OVCAR-5 ovarian
# OVCAR-8 ovarian = system: OVCAR-8 ovarian
# PC-3 prostate = system: PC-3 prostate
# RPMI-8226 leukemia = system: RPMI-8226 leukemia
# RXF 393 renal = system: RXF 393 renal
# SF-268 CNS = system: SF-268 CNS
# SF-295 CNS = system: SF-295 CNS
# SF-539 CNS = system: SF-539 CNS
# SK-MEL-28 melanoma = system: SK-MEL-28 melanoma
# SK-MEL-5 melanoma = system: SK-MEL-5 melanoma
# SK-OV-3 ovarian = system: SK-OV-3 ovarian
# SN12C renal = system: SN12C renal
# SNB-19 CNS = system: SNB-19 CNS
# SNB-75 CNS = system: SNB-75 CNS
# SR leukemia = system: SR leukemia
# SW-620 colon = system: SW-620 colon
# T-47D breast = system: T-47D breast
# TK-10 renal = system: TK-10 renal
# UACC-257 melanoma = system: UACC-257 melanoma
# UACC-62 melanoma = system: UACC-62 melanoma
# UO-31 renal = system: UO-31 renal
structure (smiles),measurement,setting,value
CCOCCOC[C@H]1CCCN(c2ccnc3sc(C(N)=O)c(N)c23)C1,GI50,786-0 renal,43.9 µM
same,TGI,786-0 renal,> 100 µM
same,GI50,A498 renal,13.9 µM
same,TGI,A498 renal,> 100 µM
same,GI50,A549 NSCLC,> 100 µM
same,TGI,A549 NSCLC,> 100 µM
same,GI50,ACHN renal,44.9 µM
same,TGI,ACHN renal,> 100 µM
same,GI50,BT-549 breast,79.1 µM
same,TGI,BT-549 breast,> 100 µM
same,GI50,CAKI-1 renal,> 100 µM
same,TGI,CAKI-1 renal,> 100 µM
same,GI50,CCRF-CEM leukemia,1430 nM
same,TGI,CCRF-CEM leukemia,11.2 µM
same,GI50,COLO 205 colon,61.6 µM
same,TGI,COLO 205 colon,> 100 µM
same,GI50,DU-145 prostate,> 100 µM
same,TGI,DU-145 prostate,> 100 µM
same,GI50,EKVX NSCLC,35.1 µM
same,TGI,EKVX NSCLC,> 100 µM
same,GI50,HCC-2998 colon,> 100 µM
same,TGI,HCC-2998 colon,> 100 µM
same,GI50,HCT-15 colon,> 100 µM
same,TGI,HCT-15 colon,> 100 µM
same,GI50,HL-60(TB) leukemia,13.5 µM
same,TGI,HL-60(TB) leukemia,63.8 µM
same,GI50,HOP-62 NSCLC,18.5 µM
same,TGI,HOP-62 NSCLC,> 100 µM
same,GI50,HOP-92 NSCLC,> 100 µM
same,TGI,HOP-92 NSCLC,> 100 µM
same,GI50,HS 578T breast,> 100 µM
same,TGI,HS 578T breast,> 100 µM
same,GI50,HT29 colon,> 100 µM
same,TGI,HT29 colon,> 100 µM
same,GI50,IGROV1 ovarian,29.6 µM
same,TGI,IGROV1 ovarian,> 100 µM
same,GI50,K-562 leukemia,4.6 µM
same,TGI,K-562 leukemia,> 100 µM
same,GI50,KM12 colon,46.7 µM
same,TGI,KM12 colon,> 100 µM
same,GI50,LOX IMVI melanoma,16.9 µM
same,TGI,LOX IMVI melanoma,> 100 µM
same,GI50,M14 melanoma,> 100 µM
same,TGI,M14 melanoma,> 100 µM
same,GI50,MALME-3M melanoma,> 100 µM
same,TGI,MALME-3M melanoma,> 100 µM
same,GI50,MCF7 breast,23 µM
same,TGI,MCF7 breast,> 100 µM
same,GI50,MDA-MB-231 breast,82.3 µM
same,TGI,MDA-MB-231 breast,> 100 µM
same,GI50,MDA-MB-435 melanoma,> 100 µM
same,TGI,MDA-MB-435 melanoma,> 100 µM
same,GI50,MDA-MB-468 breast,1340 nM
same,TGI,MDA-MB-468 breast,7.04 µM
same,GI50,MOLT-4 leukemia,3.13 µM
same,TGI,MOLT-4 leukemia,23.1 µM
same,GI50,NCI-H226 lung,90.9 µM
same,TGI,NCI-H226 lung,> 100 µM
same,GI50,NCI-H23 lung,7.19 µM
same,TGI,NCI-H23 lung,> 100 µM
same,GI50,NCI-H322M lung,13.4 µM
same,TGI,NCI-H322M lung,> 100 µM
same,GI50,NCI-H460 NSCLC,11.4 µM
same,TGI,NCI-H460 NSCLC,> 100 µM
same,GI50,NCI-H522 lung,5.77 µM
same,TGI,NCI-H522 lung,> 100 µM
same,GI50,NCI/ADR-RES ovarian,3.53 µM
same,TGI,NCI/ADR-RES ovarian,27.6 µM
same,GI50,OVCAR-3 ovarian,23.8 µM
same,TGI,OVCAR-3 ovarian,> 100 µM
same,GI50,OVCAR-4 ovarian,34.1 µM
same,TGI,OVCAR-4 ovarian,> 100 µM
same,GI50,OVCAR-5 ovarian,> 100 µM
same,TGI,OVCAR-5 ovarian,> 100 µM
same,GI50,OVCAR-8 ovarian,15.2 µM
same,TGI,OVCAR-8 ovarian,> 100 µM
same,GI50,PC-3 prostate,55.1 µM
same,TGI,PC-3 prostate,> 100 µM
same,GI50,RPMI-8226 leukemia,499 nM
same,TGI,RPMI-8226 leukemia,14.4 µM
same,GI50,RXF 393 renal,12.9 µM
same,TGI,RXF 393 renal,> 100 µM
same,GI50,SF-268 CNS,> 100 µM
same,TGI,SF-268 CNS,> 100 µM
same,GI50,SF-295 CNS,59.3 µM
same,TGI,SF-295 CNS,> 100 µM
same,GI50,SF-539 CNS,> 100 µM
same,TGI,SF-539 CNS,> 100 µM
same,GI50,SK-MEL-28 melanoma,> 100 µM
same,TGI,SK-MEL-28 melanoma,> 100 µM
same,GI50,SK-MEL-5 melanoma,2560 nM
same,TGI,SK-MEL-5 melanoma,18.1 µM
same,GI50,SK-OV-3 ovarian,17.6 µM
same,TGI,SK-OV-3 ovarian,> 100 µM
same,GI50,SN12C renal,> 100 µM
same,TGI,SN12C renal,> 100 µM
same,GI50,SNB-19 CNS,> 100 µM
same,TGI,SNB-19 CNS,> 100 µM
same,GI50,SNB-75 CNS,> 100 µM
same,TGI,SNB-75 CNS,> 100 µM
same,GI50,SR leukemia,1070 nM
same,TGI,SR leukemia,3.5 µM
same,GI50,SW-620 colon,> 100 µM
same,TGI,SW-620 colon,> 100 µM
same,GI50,T-47D breast,2230 nM
same,TGI,T-47D breast,67.4 µM
same,GI50,TK-10 renal,> 100 µM
same,TGI,TK-10 renal,> 100 µM
same,GI50,UACC-257 melanoma,61.1 µM
same,TGI,UACC-257 melanoma,> 100 µM
same,GI50,UACC-62 melanoma,35.6 µM
same,TGI,UACC-62 melanoma,> 100 µM
same,GI50,UO-31 renal,> 100 µM
same,TGI,UO-31 renal,> 100 µM
